{"source": "patent US12552844B2", "about": "“De-epitoped alpha gliadin and use of same for the management of celiac disease and gluten sensitivity” (Ukko Inc., priority 2019, dated 2026)", "note": "Where no end group is shown, it is not given here."}
{"biological_target": "MHC II molecules", "assay": "MHC/peptide competition binding assay with a radiolabelled known MHC binding peptide", "conditions": "purified MHC, incubation 2-4 days, non-binding defined as IC50≥30,000 nM", "method": "Measurement of MHC/peptide interactions: Computational prediction algorithm was used to generate a list of putative non-binding peptides. Those peptides were synthesized and binding to MHC was measured as described in Sidney J et al, 2013.\nBriefly, competition assays using different concentrations of WT and modified gluten peptides are conducted by diluting the peptides in NP40 buffer, and incubation for 2-4 days with purified MHC and a radiolabelled known MHC binding peptide. MHC II molecules are purified by affinity chromatography, and peptides are radiolabeled using the chloramine T method. After an incubation period, the bound and unbound radiolabeled species are separated, and their relative amounts are determined by either size-exclusion gel-filtration chromatography or monoclonal antibody capture of MHC. The percent of bound radioactivity is then determined. For each modified peptide, IC50 values of WT and modified peptide are calculated. The validated gluten peptide epitopes are analyzed for MHC binding as a positive control. Some of the peptides are tested also in a deamidated form.", "units": {"IC50": "µM"}}
{"sequence": "LQLQPFPQPPLPYGQ [Variant P1e]", "IC50": 30.7}
{"sequence": "TLPSPQPTLGYGQPT [Variant P2h]", "IC50": "> 40"}
{"sequence": "HLPGPQPHLSYPQPH [Variant P2e]", "IC50": "> 40"}
{"sequence": "FPPQPHPFPPQPQPF [Variant P3h]", "IC50": "> 40"}
{"sequence": "QLPYSQPHRPYHQPQ [Variant P2d]", "IC50": "> 40"}
{"sequence": "PGGQPHLPGGQPQPF [Variant P3g]", "IC50": "> 40"}
{"sequence": "PQPFPPLPYPQPQSF [Variant P3i]", "IC50": "> 40"}
{"sequence": "LQLQPFPQPHLFPPQ [Variant P1c]", "IC50": 38.6}
{"sequence": "SLPMPQPSLRYRQPS [Variant P2i]", "IC50": "> 40"}
{"sequence": "PYSQPHRPYHQPQPF [Variant P3e]", "IC50": "> 40"}
